Laboratory results reported in patent US20070129367A1, “Pyridine derivatives as cb2 receptor modulators” (priority 2002, published 2007).
Where two headings read alike, the source gives them in different places.

Biological target: T1, human cannabinoid CB2 receptor (Homo sapiens, UniProt P34972)
T1 construct: expressed in transfected cells; host or cells: Saccharomyces cerevisiae strain MMY23 (cassette integrated at the ura3 locus, GPD promoter)
Test: Cannabinoid CB2 receptor agonist activity in yeast (Saccharomyces cerevisiae) cells expressing the receptor, FDGlu fluorescence readout;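 as to Emax: percent of the maximal response of the reference agonist HU210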
Type: cell-based
Conditions: for Emax: read-out: efficacy (Emax) at the cloned human cannabinoid CB2 receptor
Method: Determination of Cannabinoid CB2 Receptor Agonist Activity
The cannabinoid CB2 receptor agonist activity of the compounds of formula (I) was determined in accordance with the following experimental method.
Yeast (Saccharomyces cerevisiae) cells expressing the human cannabinoid CB2 receptor were generated by integration of an expression cassette into the ura3 chromosomal locus of yeast strain MMY23. This cassette consisted of DNA sequence encoding the human CB2 receptor flanked by the yeast GPD promoter to the 5′ end of CB2 and a yeast transcriptional terminator sequence to the 3′ end of CB2. MMY23 expresses a yeast/mammalian chimeric G-protein alpha subunit in which the C-terminal 5 amino acids of Gpa1 are replaced with the C-terminal 5 amino acids of human Gαi3 (as described in Brown et aL (2000), Yeast 16:11-22). Cells were grown at 30° C. in liquid Synthetic Complete (SC) yeast media (Guthrie and Fink (1991), Methods in Enzymology, Vol. 194) lacking uracil, tryptophan, adenine and leucine to late logarithmic phase (approximately 6 OD600/ml).
Agonists were prepared as 10 mM stocks in DMSO. […] Agonist solutions in DMSO (1% final assay volume) were transferred into black, clear bottom, microtitre plates from NUNC (96- or 384-well). […] This mixture (50 ul per well for 384-well plates, 200 ul per well for 96-well plates) was added to agonist in the assay plates (Multidrop 384, Labsystems). After incubation at 30° C. for 24 hours, fluorescence resulting from degradation of FDGlu to fluorescein due to exoglucanase, an endogenous yeast enzyme produced during agonist-stimulated cell growth, was determined using a Spectrofluor microtitre plate reader (Tecan; excitation wavelength: 485 nm; emission wavelength: 535 nm). Fluorescence was plotted against compound concentration and iteratively curve fitted using a four parameter fit to generate a concentration effect value. […] Equieffective molar ratio (EMR) values were calculated from the equation EMR=EC50 [compound X]/EC50 [HU210]
Where EC50 [compound X] is the EC50 of compound X and EC50 [HU210] is the EC50 of HU210.

[1] = agonist activity, yeast cells, 24 hours at 30° C., read-out: EC50 at the cloned human cannabinoid CB2 receptor

T1 sequence (P34972 whole entry): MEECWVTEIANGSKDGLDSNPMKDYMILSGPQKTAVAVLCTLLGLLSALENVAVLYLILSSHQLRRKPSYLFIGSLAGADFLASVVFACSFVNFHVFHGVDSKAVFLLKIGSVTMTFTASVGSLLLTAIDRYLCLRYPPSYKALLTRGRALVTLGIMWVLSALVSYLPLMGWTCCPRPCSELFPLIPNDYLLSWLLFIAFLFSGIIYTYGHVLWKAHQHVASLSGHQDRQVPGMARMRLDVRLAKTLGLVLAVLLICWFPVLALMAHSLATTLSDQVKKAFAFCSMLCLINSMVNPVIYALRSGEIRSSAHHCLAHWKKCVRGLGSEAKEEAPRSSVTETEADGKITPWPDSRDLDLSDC

SMILES	EC50 [nM]	Emax [%]	EC50 [1] [nM]
O=C(NCc1ccc(F)cc1)c1cnc(Nc2cc(Cl)cc(Cl)c2)cc1C(F)(F)F [Example 53]	< 300	> 50	
CC(C)c1cc(Nc2ccc(Br)cc2Cl)ncc1C(=O)NCc1ccc(F)cc1 [Example 21, 6-(4-Bromo-2-chloro-phenylamino)-N-(4-fluoro-benzyl)-4-isopropyl-nicotinamide]	< 300	> 50	
O=C(NCc1ccc(F)cc1)c1cnc(Nc2ccc(Cl)c(Cl)c2)cc1C(F)(F)F [Example 55, N-(4-Fluoro-benzyl)-6-(3,4-dichloro-phenylamino)-4-trifluoroinethyl-nicotinainide]	< 300	> 50	
CC(C)c1cc(Nc2ccc(Cl)cc2Br)ncc1C(=O)NCc1ccc(F)cc1 [Example 70, 6-(2-Bromo-4-chloro-phenylamino)-N-(4-fluoro-benzyl)-4-isopropyl-nicotinamide]	< 300	> 50	
CC(C)c1cc(Nc2cccc(C(F)(F)F)c2)ncc1C(=O)NCc1ccc(F)cc1 [Example 14, N-(4-Fluoro-benzyl)-4-isopropyl-6-(3-trifluoromethyl-phenylamino)-nicotinamide]	300 to 1000	> 50	
CC(C)c1cc(Nc2ccc(C#N)c(Cl)c2)ncc1C(=O)NCc1ccc(F)cc1 [Example 23, 6-(3-Chloro-4-cyano-phenylamino)-N-(4-fluoro-benzyl)-4-isopropyl-nicotinamide]	< 300	> 50	
Cc1cc(Cl)ccc1Nc1cc(C(F)(F)F)c(C(=O)NCc2ccncc2)cn1 [Example 58, N-(Pyridin-4-ylmethyl)-6-(2-methyl-4-chloro-phenylamino)-4-trifluoromethyl-nicotinamide]	< 300	> 50	
CC(C)c1cc(Nc2cccc(Cl)c2)ncc1C(=O)NCc1ccccc1 [Example 4, N-Benzyl-6-(3-chloro-phenylamino)-4-isopropyl-nicotinamide]	< 300	> 50	
O=C(NCc1ccncc1)c1ccc(Nc2cccc(Cl)c2)nc1C(F)(F)F [Example 78, 6-(3-Chloro-phenylamino)-N-(pyridin-4-ylmethyl)-2-trifluoromethyl-nicotinamide]	< 300	> 50	
O=C(NCc1ccc(F)cc1)c1cnc(Nc2cccc(F)c2)cc1C(F)(F)F [Example 49, N-(4-Fluoro-benzyl)-6-(3-fluoro-phenylamino)-4-trifluoromethyl-nicotinamide]	< 300	> 50	
CC(C)c1cc(Nc2cccc(C#N)c2)ncc1C(=O)NCc1ccc(F)cc1 [Example 19, 6-(3-Cyano-phenylamino)-N-(4-fluoro-benzyl)-4-isopropyl-nicotinamide]			< 300
O=C(NCc1ccc(F)cc1)c1cnc(Nc2ccc(Cl)cc2Cl)cc1C(F)(F)F [Example 52]	< 300	> 50	
CC(C)c1cc(Nc2cccc(Cl)c2)ncc1C(=O)NCc1ccc(C#N)cc1 [Example 5, 6-(3-Chloro-phenylamino)-N-(4-cyano-benzyl)-4-isopropyl-nicotinamide]	300 to 1000	> 50	
CC(C)c1cc(Nc2ccc(Cl)cc2F)ncc1C(=O)NCc1ccc(F)cc1 [Example 20, 6-(4-Chloro-2-fluoro-phenylamino)-N-(4-fluoro-benzyl)-4-isopropyl-nicotinamide]	< 300	> 50	
Cc1c(Cl)cccc1Nc1cc(C(C)C)c(C(=O)NCc2ccc(F)cc2)cn1 [Example 28, 6-(3-Chloro-2-methyl-phenylamino)-N-(4-fluoro-benzyl)-4-isopropyl-nicotinamide]	300 to 1000	> 50	
CC(C)c1cc(Nc2ccc(Br)cc2F)ncc1C(=O)NCc1ccc(F)cc1 [Example 31, 6-(4-Bromo-2-fluoro-phenylamino)-N-(4-fluoro-benzyl)-4-isopropyl-nicotinamide]			300 to 1000
O=C(NCc1ccncc1)c1cnc(Nc2cccc(Cl)c2)cc1C(F)(F)F [Example 1, 2-(3-Chlorophenylamino)-4-trifluoromethylpyridine-5-carboxylic acid (pyridin-4-ylmethyl) amide]	< 300	> 50	
O=C(NCc1ccc(F)cc1)c1cnc(Nc2cccc(Cl)c2)cc1C(F)(F)F [Example 44, N-(4-Fluoro-benzyl)-6-(3-chloro-phenylamino)-4-trifluoromethyl-nicotinamide]	< 300	> 50	

SMILES	EC50 [nM]	Emax [%]	EC50 [1] [nM]
O=C(NCc1ccnc(F)c1)c1cnc(Nc2ccc(Cl)cc2Cl)cc1C(F)(F)F [Example 51, N-(2-Fluoro-pyridin-4-ylmethyl)-6-(2,4-dichloro-phenylamino)-4-trifluoromethyl-nicotinamide]	< 300	> 50	
CC(C)c1cc(Nc2ccc(F)cc2Cl)ncc1C(=O)NCc1ccc(F)cc1 [Example 71, 6-(2-Chloro-4-fluoro-phenylamino)-N-(4-fluoro-benzyl)-4-isopropyl-nicotinamide]	< 300	> 50	
O=C(NCc1ccc(F)cc1)c1cnc(Nc2cccc(Br)c2)cc1C(F)(F)F [Example 46, N-(4-Fluoro-benzyl)-6-(3-bromo-phenylamino)-4-trifluoromethyl-nicotinamide]		> 50	
CC(C)c1cc(Nc2ccc(Cl)cc2Cl)ncc1C(=O)NCc1ccc(F)cc1 [Example 22, 6-(2,4-Dichloro-phenylamino)-N-(4-fluoro-benzyl)-4-isopropyl-nicotinamide]	< 300	> 50	
O=C(NCc1ccccc1)c1cnc(Nc2cccc(Cl)c2)cc1C(F)(F)F [Example 2, 2-(3-Chlorophenylamino)-4-trifluoromethylpyridine-5-carboxylic acid benzylamide]	< 300	> 50	
Cc1c(Br)cccc1Nc1cc(C(C)C)c(C(=O)NCc2ccc(F)cc2)cn1 [Example 27, 6-(3-Bromo-2-methyl-phenylamino)-N-(4-fluoro-benzyl)-4-isopropyl-nicotinamide]	300 to 1000	> 50	
Cc1cccc(Nc2cc(C(C)C)c(C(=O)NCc3ccc(F)cc3)cn2)c1C#N [Example 16, 6-(2-Cyano-3-methyl-phenylamino)-N-(4-fluoro-benzyl)-4-isopropyl-nicotinamide]	300 to 1000	> 50	
CC(C)c1cc(Nc2cccc(F)c2)ncc1C(=O)NCc1ccc(F)cc1 [Example 17, N-(4-Fluoro-benzyl)-6-(3-fluoro-phenylamino)-4-isopropyl-nicotinamide]	< 300	> 50	
CC(C)c1cc(Nc2cccc(Cl)c2)ncc1C(=O)NCc1ccc(F)c(F)c1 [Example 7, 6-(3-Chloro-phenylamino)-N-(3,4-difluoro-benzyl)-4-isopropyl-nicotinamide]	300 to 1000	> 50	
CC(C)c1cc(Nc2ccc(Br)c(F)c2)ncc1C(=O)NCc1ccc(F)cc1 [Example 24, 6-(4-Bromo-3-fluoro-fluoro-benzyl)-4-phenylamino)-N-(4-isopropyl-nicotinamide]			< 300
CC(C)c1cc(Nc2ccc(F)c(Cl)c2)ncc1C(=O)NCc1ccc(F)cc1 [Example 15, 6-(3-Chloro-4-fluoro-phenylamino)-N-(4-fluoro-benzyl)-4-isopropyl-nicotinamide]			< 300
CC(C)c1cc(Nc2ccc(Br)c(Cl)c2)ncc1C(=O)NCc1ccc(F)cc1 [Example 75, 6-(4-Bromo-3-chloro-phenylamino)-N-(4-fluoro-benzyl)-4-isopropyl-nicotinamide]	300 to 1000	> 50	
COc1ccc(CNC(=O)c2cnc(Nc3cccc(Cl)c3)cc2C(C)C)cc1 [Example 6, 6-(3-Chloro-phenylamino)-4-isopropyl-N-(4-methoxy-benzyl)-nicotinamide]	300 to 1000	> 50	
CC(C)c1cc(Nc2ccc(Cl)c(Cl)c2)ncc1C(=O)NCc1ccc(F)cc1 [Example 32, 6-(3,4-Dichloro-phenylamino)-N-(4-fluoro-benzyl)-4-isopropyl-nicotinamide]	300 to 1000	> 50	
O=C(NCc1ccnc(F)c1)c1cnc(Nc2cccc(Cl)c2Cl)cc1C(F)(F)F [Example 50, N-(2-Fluoro-pyridin-4-ylmethyl)-6-(2,3-dichloro-phenylamino)-4-trifluoromethyl-nicotinamide]	< 300	> 50	
Cc1cccc(Nc2cc(C(C)C)c(C(=O)NCc3ccc(F)cc3)cn2)c1 [Example 29, N-(4-Fluoro-benzyl)-4-isopropyl-6-m-tolylamino-nicotinamide]	300 to 1000	> 50	
O=C(NCc1ccnc(F)c1)c1cnc(Nc2cccc(Cl)c2)cc1C(F)(F)F [Example 45, N-(2-Fluoro-pyridin-4-ylmethyl)-6-(3-chloro-phenylamino)-4-trifluoromethyl-nicotinamide]	< 300	> 50	
